Measured values published in patent US11299472B2, “Fumarate salt of (R)-3-(1-(2,3-dichloro-4-(pyrazin-2-yl)phenyl)-2,2,2- trifluoroethyl)-1-methyl-1-(1-methylpiperidin-4-yl) urea, methods of preparation, and uses thereof” (Helsinn Healthcare SA, priority 2017, dated 2022).

Assays:
[1] = Rat pharmacokinetic study, HM04 free base vs HM04 fumarate salt (Example 9); format: in vivo, male Sprague Dawley rats; settings: 3 mg/kg oral, mean ± S.D., n=3
Experimental: The pharmacokinetics of HM04 in plasma of male Sprague Dawley rats dosed with a single oral administration of 3 mg/kg HM04 (based on the weight of the free base) formulated in a solution of 10% DMAC, 6% Solutol, and 84% PBS using either the HM04 free base or HM04 fumarate salt were compared. Blood samples were withdrawn at set time intervals and plasma concentration of HM04 was measured by LC-MS/MS. A comparison of the plasma concentration of HM04 (ng/mL) over time in rats dosed orally with HM04 free base and HM04 fumarate salt is provided in FIG. 17.

[2] = Rat pharmacokinetic study, single oral HM04 fumarate salt 3, 10, 30 mg/kg (Example 10); format: in vivo, male Sprague Dawley rats; settings: for concentration at 0.5 h: 0.50 hours
Experimental: (§1) The pharmacokinetics of HM04 in plasma after single oral administration of HM04 fumarate salt to 6-week old male Sprague Dawley rats and male Beagle dogs (1-5 years of age) was investigated. Test formulations of 0.6 mg/mL, 2 mg/mL, and 6 mg/mL HM04 fumarate salt (based on weight of the free base) were prepared in 5% glucose solution. Doses of 3, 10, and 30 mg/kg HM04 fumarate salt (based on weight of the free base) were administered by gastric gavage as a 5 mL/kg dose volume of each of the three test formulations. Four animals were in each dose group. The formulation was administered to the dogs in fasting conditions with food provided three hours post-dosing.
A comparison of the plasma concentration of HM04 (ng/mL) in rats over time is provided in FIG. 19 and a summary of the pharmacokinetic analysis is provided in Table 5, below. […] The standard deviation associated with the mean oral bioavailability was calculated according to the formula: SDq=[^2√{square root over ((my^2·SDx^2+mx^2−SDy^2))}]/my^2 where q=mean bioavailability; mx=oral dose-normalized mean AUC, and my=IV dose-normalized mean AUC.
(§2) Plasma HM04 concentrations were measured by LC-MS/MS following protein precipitation in the 96-well plate format. At the time of analysis samples were thawed out at ambient temperature. Aliquots of 25 μL of rat or dog K3EDTA plasma were spiked with 300 μL of internal standard (25 ng/mL of HM04-d8 in acetonitrile). After gentle vortex mixing for 5 minutes and centrifugation at 2010 g for 15 minutes at 4° C., an aliquot of 100 μL of the organic phase was transferred into a fresh 96-well polypropylene plate, using a P3-Evolution robotic system (Perkin Elmer). Following dilution with 100 μL of […] ammonium formate pH 3.5, an aliquot of 10 μL was injected into the LC-MS/MS system.

[3] = Dog pharmacokinetic study, single oral HM04 fumarate salt 3, 10, 30 mg/kg (Example 10); format: in vivo, male Beagle dogs
Experimental: as §1
Oral absolute bioavailability at 3 mg/kg was calculated from the ratio of individual oral AUC∞ to the individual AUC∞ values determined following intravenous administration of 3 mg/kg HM04 fumarate salt (based on weight of the free base) to the same four male Beagle dogs.
Oral absolute bioavailability at 10 mg/kg was calculated from the ratio of individual oral AUC∞ to the individual AUC∞ values determined following intravenous administration of 10 mg/kg HM04 fumarate salt (based on weight of the free base) to the same four male Beagle dogs.
as §2

[4] = male, Sprague Dawley, plasma, 3 mg/kg oral, n=4
[5] = male, Sprague Dawley, plasma, 10 mg/kg oral, n=4
[6] = male, Sprague Dawley, plasma, 10 mg/kg oral, N = 3
[7] = male, Sprague Dawley, plasma, 30 mg/kg oral, n=4

With CN1CCC(N(C)C(=O)N[C@H](c2ccc(-c3cnccn3)c(Cl)c2Cl)C(F)(F)F)CC1.O=C(O)/C=C/C(=O)O [HM04 fumarate salt, (R)-3-(1-(2,3-dichloro-4-(pyrazin-2-yl)phenyl)-2,2,2-trifluoroethyl)-1-methyl-1-(1-methylpiperidin-4-yl)urea fumarate salt] the HM04 plasma concentration ([1]; 0.50 hours) was 325.9 ± 187.8 ng/mL, the HM04 plasma concentration ([1]; 1 hour) was 201.0 ± 38.7 ng/mL and the HM04 plasma concentration ([1]; 2 hours) was 173.9 ± 12.2 ng/mL. The HM04 plasma concentration ([1]; 8 hours) was 42.3 ± 2.5 ng/mL, the AUC(0-t) ([1]; male, Sprague Dawley, plasma) was 970 ± 147 ng·h/mL and the Tmax ([1]; male, Sprague Dawley, plasma) was 0.83 ± 0.29 h. The HM04 plasma concentration ([2]; 3 mg/kg oral, 24 hours, n=4, LLOQ 5.0 ng/mL) was “BLQ”, the bioavailability ([2]; male, Sprague Dawley, plasma, 3 mg/kg oral vs 3 mg/kg intravenous mean AUC) was 43.3 ± 10.5% and the concentration at 0.25 h [2, 4] was 34.7 ± 5.42 ng/mL. For the same molecule, the concentration at 0.5 h [2, 4] was 64.2 ± 35 ng/mL, the concentration at 1 h [2, 4] was 82.4 ± 30.8 ng/mL and the concentration at 2 h [2, 4] was 150 ± 53.5 ng/mL. It also gave a concentration at 4 h [2, 4] of 116 ± 24 ng/mL, a concentration at 8 h [2, 4] of 47 ± 10.9 ng/mL and a half-life ([2]; male, Sprague Dawley, plasma, 3 mg/kg oral, N = 2) of 2.82 h. For the same molecule, the AUC(0-t) [2, 4] was 762 ± 164 ng·h/mL, the Cmax [2, 4] was 156 ± 47.3 ng/mL and the Tmax [2, 4] was 3 ± 1.15 h. The AUC ([2]; male, Sprague Dawley, plasma, 10 mg/kg intravenous, four rats, read-out: mean AUC following intravenous administration) was 6170 ± 1770 ng·h/mL, the bioavailability ([2]; male, Sprague Dawley, plasma, 10 mg/kg oral vs 10 mg/kg intravenous mean AUC) was 54.4 ± 15.2% and the concentration at 0.25 h [2, 5] was 150 ± 28.5 ng/mL. The concentration at 0.5 h [2, 5] was 548 ± 603 ng/mL, the concentration at 1 h [2, 5] was 456 ± 100 ng/mL and the concentration at 2 h [2, 5] was 652 ± 62.1 ng/mL. The concentration at 4 h [2, 5] was 387 ± 134 ng/mL, the concentration at 8 h [2, 5] was 215 ± 97.3 ng/mL and the concentration at 24 h ([2]; male, Sprague Dawley, plasma, 10 mg/kg oral, 24 hours, N = 1, three of four animals below level of quantification) was 8.73 ± 17.5 ng/mL. The AUC(0-t) [2, 6] was 3360 ± 685 ng·h/mL, the half-life [2, 6] was 4.88 h and the Cmax [2, 5] was 769 ± 458 ng/mL. The Tmax [2, 5] was 1.38 ± 0.75 h, the concentration at 0.25 h [2, 7] was 950 ± 465 ng/mL and the concentration at 0.5 h [2, 7] was 1400 ± 961 ng/mL. For the same molecule, the concentration at 1 h [2, 7] was 2290 ± 537 ng/mL, the concentration at 2 h [2, 7] was 2560 ± 530 ng/mL and the concentration at 4 h [2, 7] was 2120 ± 422 ng/mL. For the same molecule, the concentration at 8 h [2, 7] was 1350 ± 179 ng/mL, the concentration at 24 h ([2]; male, Sprague Dawley, plasma, 30 mg/kg oral, 24 hours, n=4) was 14.6 ± 6.8 ng/mL and the AUC(0-t) [2, 7] was 26200 ± 3970 ng·h/mL. It also gave a Cmax [2, 7] of 2590 ± 524 ng/mL, a Tmax [2, 7] of 1.75 ± 0.5 h and a half-life [2, 7] of 2.65 ± 0.193 h. For the same molecule, the clearance [3] was “low clearance”, the oral bioavailability [3] was “high” and the HM04 plasma concentration ([3]; 30 mg/kg oral, 0 hours (pre-dose), n=4, LLOQ 2.5 ng/mL) was “BLQ”. For the same molecule, the bioavailability ([3]; male, Beagle, plasma, 3 mg/kg oral vs 3 mg/kg intravenous, individual AUC∞ ratios) was 55.6 ± 18.8%, the concentration at 0 h ([3]; male, Beagle, plasma, 3 mg/kg oral, 0 hours (pre-dose), n=4) was 5.34 ± 3.83 ng/mL and the concentration at 0.25 h ([3]; male, Beagle, plasma, 3 mg/kg oral, 0.25 hours, n=4) was 66 ± 26.8 ng/mL. It also gave a concentration at 0.5 h ([3]; male, Beagle, plasma, 3 mg/kg oral, 0.50 hours, n=4) of 360 ± 238 ng/mL, a concentration at 1 h ([3]; male, Beagle, plasma, 3 mg/kg oral, 1 hour, n=4) of 300 ± 127 ng/mL and a concentration at 2 h ([3]; male, Beagle, plasma, 3 mg/kg oral, 2 hours, N = 3 (Dog 3 excluded as outlier)) of 287 ± 158 ng/mL. It also gave a concentration at 4 h ([3]; male, Beagle, plasma, 3 mg/kg oral, 4 hours, n=4) of 185 ± 115 ng/mL.
